Assay results as given in patent US11351173B2, “Substituted pyrrolo[1,2-a]pyrimidines and their use in the treatment of medical disorders” (Bial—R&D Investments, S.A., priority 2014, dated 2022).
Values after ≈ are worked out from the molar mass of the structure shown.

Key:
[1] = Compound solubility in water; details: water; for solubility: Compound Solubility in Water
[2] = molecular target: T1, glucocerebrosidase (Gcase) (Homo sapiens, UniProt P04062); experiment: Glucocerebrosidase (Gcase) activation assay, 4-methylumbelliferyl-beta-D-glucopyranoside substrate, fluorescence readout; assay type: biochemical; details: for activation at 0.1 µM: read-out: Percent Gcase Activation, 0.1 μM Test Compound; for activation at 1 µM / Percent Gcase Activation, 1 μM Test Compound: test compound at 1.0 μM; for activation at 1 µM: read-out: Percent Gcase Activation, 1 μM Test Compound
T1 construct: micellar solution containing 10 nM GCase and 100 nM saposin C
T1 sequence (P04062 40-536): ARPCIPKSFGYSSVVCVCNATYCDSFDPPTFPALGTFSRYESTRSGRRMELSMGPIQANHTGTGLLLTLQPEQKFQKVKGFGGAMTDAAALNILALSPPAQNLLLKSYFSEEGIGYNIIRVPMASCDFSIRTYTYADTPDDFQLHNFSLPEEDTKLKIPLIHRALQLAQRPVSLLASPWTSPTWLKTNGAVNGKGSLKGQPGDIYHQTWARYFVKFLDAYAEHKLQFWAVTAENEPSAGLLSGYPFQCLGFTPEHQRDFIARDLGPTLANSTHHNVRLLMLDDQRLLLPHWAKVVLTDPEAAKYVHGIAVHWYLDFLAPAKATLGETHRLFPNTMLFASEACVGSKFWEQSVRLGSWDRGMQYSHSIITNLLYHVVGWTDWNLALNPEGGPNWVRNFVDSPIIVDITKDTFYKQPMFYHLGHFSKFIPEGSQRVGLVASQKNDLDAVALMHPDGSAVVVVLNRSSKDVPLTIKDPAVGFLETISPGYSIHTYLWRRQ
Experimental: The ability of exemplary compounds to activate glucocerebrosidase (Gcase) was measured.
A 484 μL aliquot of a 1.0 mg/mL solution of phosphatidylserine (PS) (Sigma P7769) in chloroform was evaporated under a stream of nitrogen for 1 hour. The lipid film was dissolved over 4 minutes of vigorous vortexing in 40 mL of 176 mM K2HPO4/50 mM citric acid (pH 4.7) containing 7.5 μL of triton X-100, resulting in a mixed micellar preparation with a composition of 0.32 mM triton and 0.37 mol % PS. 4-Methylumbelliferyl-beta-D-glucopyranoside (ACROS-337025000) was dissolved in the micellar solution to a final concentration of 2 mM for use as the reaction substrate.
Test compounds were diluted to the desired concentrations with dimethylsulfoxide (DMSO) from 10 mM stocks, and 0.41 μL of the DMSO compound mixture was added to 100 μL of micellar solution containing 10 nM GCase and 100 nM saposin C (Enzo ALX-201-262-C050). Pre-incubation was allowed to occur for 30 minutes at room temperature, after which the reaction was initiated by combining 25 μL of substrate solution with 25 μL of compound/GCase/saposin mixture. The reaction proceeded for 15 minutes at room temperature and was stopped by adding 150 μL of 1M glycine, pH 12.5. The endpoint of the reaction was monitored by measuring fluorescence intensity (excitation: 365 nm; emission: 440 nm) on a SpectraMax i3 instrument (Molecular Devices). Test compounds were screened at 1.0 and 0.1 μM final concentration, and subsequent 8-point dose response curves were obtained using 3-fold dilutions from a maximum final concentration of 5 μM.

Row | Structure (SMILES) | activation at 0.1 µM ([2]; test compound at 0.1 μM) [%] | activation at 1 µM [2] [%] | other results
1 | CCCCCN(C)C(=O)[C@H]1CC[C@H](NC(=O)c2ccn3c(C)cc(C)nc23)CC1 [III-203] | < 10 | 30 to 60 | solubility ([1]; in water): 17 µg/mL (≈ 42.7 µM)
2 | Cc1cc(C)n2ccc(C(=O)NC3Cc4ccc(-c5ncco5)cc4C3)c2n1 (centres unmarked) [III-242] | 10 to 20 | > 60 | solubility ([1]; in water): 1.3 µg/mL (≈ 3.49 µM)
3 | Cc1cc(C)n2ccc(C(=O)Nc3ccc(N4CCCCC4)cc3)c2n1 [III-281] | – | – | solubility ([1]; in water): < 0.1 µg/mL
4 | Cc1cc(C)n2ccc(C(=O)NC3CCC(C(=O)N(C)C4CC4)CC3)c2n1 (centres unmarked) [III-135] | – | – | Compound Solubility in Water [1]: 41.1 µg/mL; Percent Gcase Activation, 0.1 μM Test Compound ([2]; test compound at 0.1 μM): * (less than 10% Gcase activation); Percent Gcase Activation, 1 μM Test Compound [2]: + (less than 30% Gcase activation)
5 | CCCOC[C@H]1CC[C@H](NC(=O)c2ccn3c(C)cc(C)nc23)CC1 [III-114] | > 20 | > 60 | solubility [1]: 1.3 µg/mL (≈ 3.78 µM)
6 | CNc1cc(C)n2ccc(C(=O)N[C@H]3CC[C@H](OCC(C)C)CC3)c2n1 [III-71] | > 20 | > 60 | solubility [1]: 1 µg/mL (≈ 2.79 µM)
7 | CO[C@H]1CC[C@H](C(C)(C)NC(=O)c2ccn3c(C)cc(Cl)nc23)CC1 [III-75] | 10 to 20 | > 60 | solubility [1]: 5.3 µg/mL (≈ 14.6 µM)
8 | Cc1cc(C)n2ccc(C(=O)NCC3CCC4(CCCCO4)CC3)c2n1 (centres unmarked) [III-123] | < 10 | > 60 | solubility [1]: 19.4 µg/mL (≈ 54.6 µM)
9 | [2H]C1(NC(=O)c2ccn3c(COC)cc(C(C)C)nc23)CCOc2cc(F)c(F)cc21 (centres unmarked) [III-59] | 10 to 20 | > 60 | solubility [1]: 0.07 µg/mL (≈ 0.168 µM)
10 | Cc1cc(C)n2ccc(C(=O)NC3CCC(Oc4cc(C)on4)C3)c2n1 (centres unmarked) [III-244] | – | – | Percent Gcase Activation, 1 μM Test Compound [2]: +++ (Gcase activation greater than 60%)
11 | Cc1cc(C)n2ccc(C(=O)NC3CCCC(Oc4cccs4)C3)c2n1 (centres unmarked) [III-191] | > 20 | > 60 | –
12 | Cc1cc(C)n2ccc(C(=O)NC3CCC(Oc4cc(C)on4)C3)c2n1 (centres unmarked) [III-243] | < 10 | – | –
13 | COCc1cc(C(C)C)nc2c(C(=O)NC3(C)CCCc4ncncc43)ccn12 (centres unmarked) [III-31] | < 10 | < 30 | –
14 | Cc1cc(C)n2ccc(C(=O)NC(C)(C)c3ccccc3Cl)c2n1 [III-79] | 10 to 20 | > 60 | –
15 | COCC#Cc1ccc(NC(=O)c2ccn3c(C)cc(C)nc23)cn1 [III-282] | – | – | solubility ([1]; in water): 0.7 µg/mL (≈ 2.09 µM)
16 | COCc1cc(C(C)C)n2ccc(C(=O)NC3(C)CCCc4ncncc43)c2n1 (centres unmarked) [III-32] | < 10 | < 30 | –
17 | Cc1cc(C)n2ccc(C(=O)NC3CCC4(CCOCC4)CC3)c2n1 [III-140] | < 10 | < 30 | –
18 | Cc1cc(C)n2ccc(C(=O)N[C@@H](C)c3ccccc3F)c2n1 [III-77] | > 20 | > 60 | –
19 | COc1cc(C)nc2c(C(=O)Nc3ccc(-c4cocn4)cc3)ccn12 [III-51] | 10 to 20 | < 30 | –
20 | Cc1cc(C)n2ccc(C(=O)Nc3ccc4c(c3)C(n3oc(C)cc3=O)CC4)c2n1 (centres unmarked) [III-97] | < 10 | 30 to 60 | –
21 | CCCOC1CC(CNC(=O)c2ccn3c(C)cc(C)nc23)C1 (centres unmarked) [III-239] | < 10 | < 30 | –
22 | Cc1cc(C)n2ccc(C(=O)Nc3ccc4c(c3)OCO4)c2n1 [III-280] | – | – | solubility ([1]; in water): 0.2 µg/mL (≈ 0.647 µM)
23 | Cc1cc(C)n2ccc(C(=O)NC3(C)CCCc4ncncc43)c2n1 (centres unmarked) [III-175] | < 10 | < 30 | –
24 | Cc1cc(C(F)(F)F)nc2c(C(=O)NC3(C)CCCc4ncncc43)ccn12 (centres unmarked) [III-250] | < 10 | < 30 | –
25 | Cc1cc(C)n2ccc(C(=O)N[C@@H](C)c3ccc(F)cc3)c2n1 [III-78] | > 20 | > 60 | –
